This is an account of results in patent US7122209B2, “Oral compositions for the treatment of non-diabetic obese mammals, including humans” (Quimica Farmaceutica Bayer S.A., priority 2001, dated 2006).

One data set concerns standard-fed rats. The experiment in a line: Standard-fed rats, oral tungstate in drinking water. The data set is classed as in vivo, male Wistar rats. An excerpt: (§1) For the present experiments, male Wistar rats (IFFA CREDO), weighing 0.20–0.22 kg, were caged individually in a 12:12-h light-dark cycle, temperature and humidity controlled environment. After an adaptation period of 1 week the animals were divided into two dietary groups. One group was fed standard chow diet (2.7% in fat content, type AO4 from Panlab, Barcelona, Spain) and the second group was fed a cafeteria diet (30% in fat content). The cafeteria diet consisted of a daily offering of cookies, liver pate, bacon, standard chow and whole milk supplemented with 333 g/l sucrose and 10 g/l of a mineral and vitamin complex (Gevral, Cynamid Ibérica, Madrid, Spain). All the food items were weighed and presented in excess.
An initial set of forty rats were divided into two sets of dietary conditions, control (standard diet, n=15) and cafeteria (cafeteria diet, n=25), and fed for 30 days. […]
The treatment was carried out for 32 days. […] Selective food items consumption (corrected by the amount of water lost for each) and the weight of all animals were recorded daily. […]
Remaining rats (n=19) were withdrawn the tungstate treatment, but maintained the dietary conditions, in order to start a 35 day recovery period. […] Selective food items consumption (corrected by the amount of water lost for each) and the weight of all animals were recorded daily.

A further data set deals with cafeteria-fed rats. Kind of data set: Diet-induced obesity (cafeteria diet) rat model, oral tungstate in drinking water. In kind it is in vivo, male Wistar rats.
Source text: The so-called “cafeteria diet” consists of an offering of freshly and highly palatable supermarket food items with high fat and/or carbohydrate content in addition to standard laboratory chow. […] Moreover, it is also known that ingestion of a cafeteria diet results in increased thermogenesis and fat deposition.
as §1
An initial set of forty rats were divided into two sets of dietary conditions, control (standard diet, n=15) and cafeteria (cafeteria diet, n=25), and fed for 30 days. In order to evaluate the effects of tungstate treatment, animals from each condition were divided into two new subsets: tungstate treated and tungstate untreated groups (simply treated and untreated in the following). The treated rats were given a solution of 2 mg/ml of sodium tungstate dihydrate in distilled water.
The treatment was carried out for 32 days. Blood glucose measurements as well as blood samples were collected before (days 0–30), during (days 31–62) and at the end of the experimental period. Selective food items consumption (corrected by the amount of water lost for each) and the weight of all animals were recorded daily.
At the end of the treatment period, rats from treated (n=8) and untreated (n=7) cafeteria-fed groups and rats from both treated (n=3) and untreated (n=3) standard-fed groups were killed and several tissues (gastrocnemius muscle, intercapular brown adipose tissue (iBAT), epididimal white adipose tissue (WAT), liver, pancreas and brain) were excised, weighed, cleaned and rapidly frozen in liquid nitrogen or fixed in formol 10% for future studies.
Remaining rats (n=19) were withdrawn the tungstate treatment, but maintained the dietary conditions, in order to start a 35 day recovery period. After this time animals were killed and processed as above. Selective food items consumption (corrected by the amount of water lost for each) and the weight of all animals were recorded daily.
The data obtained in this study allowed to establish an obesity criteria. […]

A short description of data set [1]: Solubility in water (description). The data set is classed as physicochemical.

On to `O.O.[Na+].[Na+].[O]=[W](=[O])([O-])[O-]` [sodium tungstate dihydrate], for which the body weight increase result in the data set on standard-fed rats (2 mg/ml sodium tungstate dihydrate in distilled water, treatment period days 31-62, vs untreated) is reported as “significantly diminished body weight increase”; with cafeteria-fed rats (cafeteria-fed rats, 2 mg/ml sodium tungstate dihydrate in distilled water, treatment period days 31-62, vs untreated), “significantly diminished body weight increase”. The “body weight after withdrawal of treatment (reversibility)” value with standard-fed rats (recovery period days 63-97) is reported as “started to gain body weight quickly”; in the data set with cafeteria-fed rats (cafeteria-fed rats, recovery period days 63-97), “started to gain body weight quickly”. In the data set on cafeteria-fed rats (cafeteria diet rat model, during weight loss), the food intake result is given as “without decrease of food intake”. In the data set with cafeteria-fed rats (cafeteria-fed rats, end of 35 day recovery period), the “body weight increase difference between treated and untreated rats at day 97” value was “quite important”. Moreover, the solubility in water entry in data set [1] was “easily dissolved in water”.
